The melting point is the temperature of the solid-liquid transition.

The values below come from article PMC6441007, “Semi-solid prodrug nanoparticles for long-acting delivery of water-soluble antiretroviral drugs within combination HIV therapies” (Nature Communications, 2019).

Data set [1] is described as follows: Prodrug hydrolysis in undiluted human plasma (HPLC, half-life). The class given is in vitro ADME. The settings on record: 1 mM, 37 °C. The method, then: (§1) As expected, rapid enzyme-catalysed hydrolysis of the 5’-carbonate group of 1–8 was observed, evident from the short plasma half-lives (<12 h) and relatively rapid initial hydrolysis rates in liver S9 and muscle S9 fractions (evaluated over a timeframe in which the carbamate masking group remains intact). […] Although chemically similar to capecitabine at the carbamate moiety, the plasma half-lives of longer-chain carbamates 12–16 were generally shorter. Initial hydrolysis rates in liver and muscle S9 fractions were within a sixfold range of capecitabine as measured in our hands, with the longer C5 to C8 analogues (13–16) undergoing hydrolysis most efficiently in liver S9 (Supplementary Figure 21). […] In all cases, the hydrolysis of the carbonate moiety of 1–8 was considerably faster in liver than muscle.
Reaction mixtures containing pooled mixed gender human plasma (Bioreclamation) were pre-incubated at 37 °C for 5 min. Reactions were initiated by the addition of prodrugs 1–8 (1 mM + 5% DMSO). […] The supernatant was diluted 10-fold into phosphate buffer (0.1 M, pH 7.4) and analysed by HPLC method described within Supplementary Information (monitoring starting material depletion at 305 nm). […]
323 buffer (0.1 M, pH 7.4) and analyzed by the HPLC method described above monitoring […]

For data set [2], the system named is human immunodeficiency virus type 1 reverse transcriptase. To be noted: intracellular FTC-TP; cited from earlier work.
A short description of data set [3]: Initial rate of prodrug hydrolysis in human liver S9 (HPLC). Format: in vitro ADME. To be noted: for Hydrolysis liver: IVIVE model input, determined experimentally. The method, then:
as §1
(§2) Reaction mixtures containing mixed gender human skeletal muscle S9 (10.47 mg mL^−1, Bioreclamation) or phosphate buffer (0.1 M, pH 7.4) and pooled, mixed gender liver S9 (2.0 mg mL^−1, Xenotech) were pre-incubated at 37 °C for 5 min. Reactions were initiated by the addition of prodrugs 1–8 (1 mM + 5% DMSO). After incubation at 37 °C, aliquots were taken at time points measuring initial rate (Muscle S9: 1–3: 0.5, 10, 20, 30, 40, 50, and 60 min; 4: 0.5, 20, 40, 60, 80, 100, and 120 min; 5–6: 0.5, 30, 60, 90, 150, and 180 min; 7–8: 0.5 min, 30 min, 1 h, 3 h, 4 h, 5 h) (Liver S9: 1–2: 0.5, 1, 2, 3, 4, and 5 min; 3–6: 0.5, 2, 4, 6, 8, and 10 min; 7–8: 0.5, 5, 10, 15, 20, 25, 30, and 60 min). These aliquots were quenched in two volumes of ice-cold methanol. The quenched aliquots were then centrifuged at 16,873 × g for 5 min. The supernatant was diluted 10-fold into phosphate buffer (0.1 M, pH 7.4) and analysed by HPLC method described within Supplementary Information (monitoring starting material depletion at 305 nm). […]

Data set [4] in a line: Initial rate of prodrug hydrolysis in human skeletal muscle S9 (HPLC). The class given is in vitro ADME. To be noted: for Hydrolysis muscle: IVIVE model input, determined experimentally. The method, then:
as §1, §2

For data set [5] the following is noted: IVIVE model input parameter (Supplementary Table 4); source not given; cited from earlier work.
For data set [6] the following is noted: cited from earlier work.
The conditions of data set [7]: 25 °C; cited from earlier work.
The subject of data set [8] is viral replication. The settings on record: plasma concentration; cited from earlier work.
[9] abbreviates: oral 400mg FTC, human clinical data, mean (minimum-maximum).
Setting [10] is: oral FTC at steady state, average of 3 independent clinical studies, mean (± SD), ref Supplementary References 3-5.

Converted amounts (≈) assume the structure as drawn. Read-outs that look alike come from different tables or passages of the source.

Regarding `CCOC(=O)Nc1nc(=O)n([C@@H]2CS[C@H](COC(=O)OCC)O2)cc1F` [prodrug 2, Ethyl (1-((2R,5S)-2-(((ethoxycarbonyl)oxy)methyl)-1,3-oxathiolan-5-yl)-5-fluoro-2-oxo-1,2-dihydropyrimidin-4-yl)carbamate], the “plasma half-life (hydrolysis of 5'-carbonate moiety)” value in data set [1] was “shortest”.

For the compound `COC(=O)Nc1nc(=O)n([C@@H]2CS[C@H](COC(=O)OC)O2)cc1F` [prodrug 1, Methyl (5-fluoro-1-((2R,5S)-2-(((methoxycarbonyl)oxy)methyl)-1,3-oxathiolan-5-yl)-2-oxo-1,2-dihydropyrimidin-4-yl)carbamate], the melting point fell in the range of 97 to 103 °C.

On to `CCCOC(=O)Nc1nc(=O)n([C@@H]2CS[C@H](CO)O2)cc1F` [prodrug 11, Propyl (5-fluoro-1-((2R,5S)-2-(hydroxymethyl)-1,3-oxathiolan-5-yl)-2-oxo-1,2-dihydropyrimidin-4-yl)carbamate], for which the melting point was in the range of 82 to 86 °C.

Compound `CCCCCCCOC(=O)Nc1nc(=O)n([C@@H]2CS[C@H](CO)O2)cc1F` [prodrug 15, Heptyl (5-fluoro-1-((2R,5S)-2-(hydroxymethyl)-1,3-oxathiolan-5-yl)-2-oxo-1,2-dihydropyrimidin-4-yl)carbamate] had a melting point of 46 °C.

For the compound `CCCCCCOC(=O)Nc1nc(=O)n([C@@H]2CS[C@H](CO)O2)cc1F` [prodrug 14, Hexyl (5-fluoro-1-((2R,5S)-2-(hydroxymethyl)-1,3-oxathiolan-5-yl)-2-oxo-1,2-dihydropyrimidin-4-yl)carbamate], the melting point lay in the range of 46 to 49 °C.

As to `Nc1nc(=O)n([C@@H]2CS[C@H](COP(=O)(O)OP(=O)(O)OP(=O)(O)O)O2)cc1F` [FTC-TP, FTC triphosphate], in data set [2], the “intracellular half-maximal inhibitory concentration (IC50)” value was 150 fmol per 10^6 cells.

For the compound `CCCCOC(=O)Nc1nc(=O)n([C@@H]2CS[C@H](COC(=O)OCCCC)O2)cc1F` [prodrug 4, Butyl (1-((2R,5S)-2-(((butoxycarbonyl)oxy)methyl)-1,3-oxathiolan-5-yl)-5-fluoro-2-oxo-1,2-dihydropyrimidin-4-yl)carbamate], the Hydrolysis liver in data set [3] was determined as 0.5786 h⁻¹. For the same compound, the Hydrolysis muscle in data set [4] was 0.0290 h⁻¹.

Compound `CCCOC(=O)Nc1nc(=O)n([C@@H]2CS[C@H](COC(=O)OCCC)O2)cc1F` [prodrug 3, Propyl (5-fluoro-2-oxo-1-((2R,5S)-2-(((propoxycarbonyl)oxy)methyl)-1,3-oxathiolan-5-yl)-1,2-dihydropyrimidin-4-yl)carbamate] showed a melting point of 102 to 107 °C. For the same compound, the “plasma half-life (hydrolysis of 5'-carbonate moiety)” value in data set [1] is “shortest”. The “5'-carbonate hydrolysis rate in liver S9” value in data set [3] (1 mM, 37 °C, across series 1-8) is listed as “maximum”. The “5'-carbonate hydrolysis rate in muscle S9” value in data set [4] (1 mM, 37 °C, across series 1-8) was “maximum”.

Regarding `Nc1nc(=O)n([C@@H]2CS[C@H](CO)O2)cc1F` [FTC, emtricitabine], in [5], the “Plasma Cl” value was 19.35 L/h. In data set [6] (setting [9]), the “AUC, observed” value is recorded as 16484 (11524-21388) ng/h/mL; the “Cmax, observed” value is 2968 (1582-4165) ng/mL; the “Cmin, observed” value is reported as 63 (48-134) ng/mL. Besides, in data set [6] (setting [10]), the “AUC, observed” value is on record as 9100 (± 1646) ng/h/mL; the “Cmax, observed” value is reported as 1773 (± 46.1) ng/mL; the “Cmin, observed” value is 67 (± 25) ng/mL. The water solubility in data set [7] was 112 mg/mL (≈ 453 mM). In addition, the “concentration inhibiting 90% of viral replication (IC90)” value in data set [8] is 50 ng/mL.

As for `CCCCCOC(=O)Nc1nc(=O)n([C@@H]2CS[C@H](COC(=O)OCCCCC)O2)cc1F` [prodrug 5, Pentyl (5-fluoro-2-oxo-1-((2R,5S)-2-((((pentyloxy)carbonyl)oxy)methyl)-1,3-oxathiolan-5-yl)-1,2-dihydropyrimidin-4-yl)carbamate], the melting point lay in the range of 103 to 106 °C.

In the case of `CCCCCOC(=O)Nc1nc(=O)n([C@@H]2CS[C@H](CO)O2)cc1F` [prodrug 13, Pentyl (5-fluoro-1-((2R,5S)-2-(hydroxymethyl)-1,3-oxathiolan-5-yl)-2-oxo-1,2-dihydropyrimidin-4-yl)carbamate], the melting point lay in the range of 44 to 47 °C.

`CCCCCCCCOC(=O)Nc1nc(=O)n([C@@H]2CS[C@H](CO)O2)cc1F` [prodrug 16, Octyl (5-fluoro-1-((2R,5S)-2-(hydroxymethyl)-1,3-oxathiolan-5-yl)-2-oxo-1,2-dihydropyrimidin-4-yl)carbamate]: the Hydrolysis liver in [3] is 0.0282 h⁻¹. Besides, the Hydrolysis muscle in [4] turned out to be 0.004 h⁻¹.

Compound `COC(=O)Nc1nc(=O)n([C@@H]2CS[C@H](CO)O2)cc1F` [prodrug 9, Methyl (5-fluoro-1-((2R,5S)-2-(hydroxymethyl)-1,3-oxathiolan-5-yl)-2-oxo-1,2-dihydropyrimidin-4-yl)carbamate] returned a melting point of 85 to 89 °C.

Consider `CCCCCCCCOC(=O)Nc1nc(=O)n([C@@H]2CS[C@H](COC(=O)OCCCCCCCC)O2)cc1F` [prodrug 8, Octyl (5-fluoro-1-((2R,5S)-2-((((octyloxy)carbonyl)oxy)methyl)-1,3-oxathiolan-5-yl)-2-oxo-1,2-dihydropyrimidin-4-yl)carbamate], for which the Hydrolysis liver in data set [3] came out at 0.0694 h⁻¹. For the same compound, in data set [4], the Hydrolysis muscle was found to be 0.0067 h⁻¹.

`CCCCOC(=O)Nc1nc(=O)n([C@@H]2CS[C@H](CO)O2)cc1F` [prodrug 12, Butyl (5-fluoro-1-((2R,5S)-2-(hydroxymethyl)-1,3-oxathiolan-5-yl)-2-oxo-1,2-dihydropyrimidin-4-yl)carbamate] gave a melting point of 47 °C. The Hydrolysis liver in data set [3] was 0.0125 h⁻¹. In data set [4], the Hydrolysis muscle is 0.001 h⁻¹.

`CCCCCCOC(=O)Nc1nc(=O)n([C@@H]2CS[C@H](COC(=O)OCCCCCC)O2)cc1F` [prodrug 6, Hexyl (5-fluoro-1-((2R,5S)-2-((((hexyloxy)carbonyl)oxy)methyl)-1,3-oxathiolan-5-yl)-2-oxo-1,2-dihydropyrimidin-4-yl)carbamate] registered a melting point of 110 °C.
